Consider ten compounds from PubChem BioAssay (NCI).

Test systems include LXFL 529 NSCLC; MCF7 breast; M14 melanoma; SN12C renal; OVCAR-8 ovarian; SK-OV-3 ovarian; MOLT-4 leukemia; RPMI-8226 leukemia; KM20L2 colon; NCI/ADR-RES ovarian.
What all share (assay): NCI tumour cell line growth inhibition, 48 h

The structures appear in SMILES notation. “And” between values parts separate entries of the source, which are not always exact repeats. Equal values may be shown once.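 Values below derive from 48-hour exposures of cells grown in 96-well plates, with endpoints linearly interpolated between the two concentrations bracketing the appropriate inhibition level. GI50 = concentration required for 50% inhibition of growth. Definition used: TGI = concentration required for complete inhibition of growth.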 Some results are limits rather than exact numbers.

`CCCSc1nc(COC(=O)NC)c(COC(=O)NC)n1C`: the TGI in the assay on LXFL 529 NSCLC, in the assay with MCF7 breast, in the assay with M14 melanoma, with SN12C renal, in the assay with OVCAR-8 ovarian and in the assay with SK-OV-3 ovarian was above 100 µM in each case. Further, the TGI in the assay on MOLT-4 leukemia is 56.6 µM and > 70 µM; in the assay on RPMI-8226 leukemia, 57.4 µM and > 94.9 µM; in the assay on KM20L2 colon, above 100 µM; with NCI/ADR-RES ovarian it was above 100 µM.

For `COc1ccc(CC2NCCc3cc(OC)c(OC)cc32)cc1Br` (stereo not drawn), the TGI with LXFL 529 NSCLC was above 100 µM; in the assay on MCF7 breast, above 100 µM; in the assay on M14 melanoma, 31 µM; in the assay on SN12C renal, above 100 µM; with OVCAR-8 ovarian, above 100 µM; with SK-OV-3 ovarian, above 100 µM. The TGI with MOLT-4 leukemia was 73.3 µM; with RPMI-8226 leukemia, 50.2 µM; in the assay on KM20L2 colon it was above 100 µM; in the assay with NCI/ADR-RES ovarian, above 100 µM.

For the compound `C1C[OH+]CC[OH+]CC[OH+]CC[OH+]CC[OH+]1.[Cl-].[V]`, the GI50 in the assay on LXFL 529 NSCLC is above 100 µM; in the assay with M14 melanoma, 45.3 µM; in the assay on SN12C renal it was above 100 µM; in the assay with OVCAR-8 ovarian, above 100 µM; in the assay with SK-OV-3 ovarian, 67.8 µM; with MOLT-4 leukemia, above 100 µM. Also, the GI50 with RPMI-8226 leukemia and in the assay on KM20L2 colon was above 100 µM throughout. For the same compound, the TGI with LXFL 529 NSCLC, in the assay on M14 melanoma, in the assay on SN12C renal, in the assay with OVCAR-8 ovarian, in the assay with SK-OV-3 ovarian and in the assay with MOLT-4 leukemia was above 100 µM in each case. The TGI with RPMI-8226 leukemia and in the assay on KM20L2 colon was above 100 µM throughout.

On to `O=C(Nc1c(Cl)cc([N+](=O)[O-])cc1Cl)C(=O)C(C1OC(=O)c2ccccc21)[N+](=O)[O-]` (stereo not drawn), for which the TGI in the assay with LXFL 529 NSCLC, in the assay on M14 melanoma, in the assay on SN12C renal, with OVCAR-8 ovarian, in the assay on SK-OV-3 ovarian and with MOLT-4 leukemia was above 100 µM each time. Moreover, the TGI in the assay with RPMI-8226 leukemia and in the assay with KM20L2 colon was above 100 µM in each case.

Regarding `CCN(CC)c1ccc(N=Nc2ccc(-c3nc4ccc[n+](C)c4s3)cc2)cc1`, the TGI in the assay with LXFL 529 NSCLC was found to be 17.9 µM; in the assay with M14 melanoma, 37.6 µM; with SN12C renal it was 16.2 µM; in the assay with OVCAR-8 ovarian it was 65.3 µM; with SK-OV-3 ovarian, 38.1 µM; with MOLT-4 leukemia, 24.6 µM. The results for the TGI with RPMI-8226 leukemia and in the assay on KM20L2 colon were 25.7 µM and 19.9 µM, respectively.

As to `CCOC(=O)NC(=O)c1cn(CCCOC(=O)CCCCCCCCCCC(=O)OCCCn2cc(C(=O)NC(=O)OCC)c(=O)[nH]c2=O)c(=O)[nH]c1=O`, the TGI in the assay on LXFL 529 NSCLC, with M14 melanoma, in the assay with SN12C renal, with OVCAR-8 ovarian, with SK-OV-3 ovarian and with MOLT-4 leukemia was above 100 µM each time. The TGI in the assay on RPMI-8226 leukemia and in the assay on KM20L2 colon was above 100 µM throughout.

For `S=C1OC2CCCC[C@H]2O1` (stereo partly drawn), the TGI in the assay with LXFL 529 NSCLC, with M14 melanoma, in the assay on SN12C renal, in the assay with OVCAR-8 ovarian, in the assay on SK-OV-3 ovarian and with MOLT-4 leukemia was above 100 µM throughout. For the same compound, the TGI in the assay with RPMI-8226 leukemia and with KM20L2 colon was above 100 µM in each case.

In the case of `O=C1CC2CCCC23CC2(CCN13)OCCO2` (stereo not drawn), the TGI in the assay on LXFL 529 NSCLC, in the assay on M14 melanoma, with SN12C renal, in the assay with OVCAR-8 ovarian, in the assay with SK-OV-3 ovarian and in the assay with MOLT-4 leukemia was above 100 µM throughout. Besides, the TGI in the assay with RPMI-8226 leukemia and in the assay on KM20L2 colon was above 100 µM each time.

As for `C=C1C(=O)OC2/C=C(\COC(C)=O)CCC(OC(C)=O)C3=CC(OC3=O)C12` (stereo not drawn), the TGI in the assay on LXFL 529 NSCLC stood at 3.56 µM; with MCF7 breast, 15.5 µM; with M14 melanoma it was 10 µM; with SN12C renal it was 18.9 µM; in the assay on OVCAR-8 ovarian it was 9.6 µM; with SK-OV-3 ovarian, 28.4 µM. In addition, the values for the TGI in the assay on MOLT-4 leukemia, in the assay with RPMI-8226 leukemia and in the assay on KM20L2 colon were 5.74 µM, above 100 µM and 14.3 µM, respectively.

For the compound `CC(C)(C)c1cc(C(O)(C(F)(F)F)C(F)(F)F)c2c(c1)C(C(F)(F)F)(C(F)(F)F)OC(C(C)(C)C)N2` (stereo not drawn), the TGI in the assay on LXFL 529 NSCLC came to 11.7 µM; in the assay on M14 melanoma, 18.2 µM; with SN12C renal, 14.6 µM; in the assay on OVCAR-8 ovarian, 13.1 µM; in the assay on SK-OV-3 ovarian it was 5.58 µM; in the assay with MOLT-4 leukemia, 5.34 µM. In addition, the TGI was found to be 6.74 µM with RPMI-8226 leukemia and 11.5 µM in the assay with KM20L2 colon.
